According to patent US20110092544A1, “FUNGICIDAL PYRIDINES” (E.I. DU PONT DE nemours and company, priority 2008, published 2011):

Legend:
Assay type in all cases: in vivo
[1] = test system: Erysiphe graminis f. sp. tritici; experiment: Test A: wheat powdery mildew, preventive spray on wheat seedlings, visual disease rating
Description: (§1) General protocol for preparing test suspensions for Tests A-H: The test compounds were first dissolved in acetone in an amount equal to 3% of the final volume and then suspended at the desired concentration (in ppm) in acetone and purified water (50/50 mix) containing 250 ppm of the surfactant Trem® 014 (polyhydric alcohol esters). The resulting test suspensions were then used in tests A-H. Spraying a 200 ppm test suspension to the point of run-off on the test plants was the equivalent of a rate of 500 g/ha.
The test suspension was sprayed to the point of run-off on wheat seedlings. The following day the seedlings were inoculated with a spore dust of Erysiphe graminis f. sp. tritici (the causal agent of wheat powdery mildew) and incubated in a growth chamber at 20° C. for 8 days, after which time disease ratings were visually made.
(§2) Results for Tests A-H are given in Table A. In the table, a rating of 100 indicates 100% disease control and a rating of 0 indicates no disease control (relative to the controls). A dash (-) indicates no test results. All results are for compounds tested at 200 ppm except where the compound number is followed by “*” which indicates the compound was tested at 40 ppm.

Alternaria solani = experiment: Test E: tomato early blight, preventive spray on tomato seedlings, visual disease rating
Description: as §1
The test suspension was sprayed to the point of run-off on tomato seedlings. The following day the seedlings were inoculated with a spore suspension of Alternaria solani (the causal agent of tomato early blight) and incubated in a saturated atmosphere at 27° C. for 48 h, and then moved to a growth chamber at 20° C. for 5 days, after which time disease ratings were visually made.
as §2

Botrytis cinerea = experiment: Test F: tomato botrytis, preventive spray on tomato seedlings, visual disease rating
Description: as §1
The test suspension was sprayed to the point of run-off on tomato seedlings. The following day the seedlings were inoculated with a spore suspension of Botrytis cinerea (the causal agent of tomato botrytis) and incubated in saturated atmosphere at 20° C. for 48 h, and then moved to a growth chamber at 24° C. for 3 additional days, after which time disease ratings were visually made.
as §2

[2] = test system: Puccinia recondite f. sp. tritici; experiment: Test B: wheat leaf rust, preventive spray on wheat seedlings, visual disease rating
Description: as §1
The test suspension was sprayed to the point of run-off on wheat seedlings. The following day the seedlings were inoculated with a spore suspension of Puccinia recondite f. sp. tritici (the causal agent of wheat leaf rust) and incubated in a saturated atmosphere at 20° C. for 24 h, and then moved to a growth chamber at 20° C. for 7 days, after which time disease ratings were visually made.
as §2

Septoria nodorum = experiment: Test D: wheat glume blotch, preventive spray on wheat seedlings, visual disease rating
Description: as §1
The test suspension was sprayed to the point of run-off on wheat seedlings. The following day the seedlings were inoculated with a spore suspension of Septoria nodorum (the causal agent of wheat glume blotch) and incubated in a saturated atmosphere at 20° C. for 48 h, and then moved to a growth chamber at 20° C. for 7 days, after which time disease ratings were visually made.
as §2

Septoria tritici = experiment: Test C: wheat leaf blotch, preventive spray on wheat seedlings, visual disease rating
Description: as §1
The test suspension was sprayed to the point of run-off on wheat seedlings. The following day the seedlings were inoculated with a spore suspension of Septoria tritici (the causal agent of wheat leaf blotch) and incubated in a saturated atmosphere at 20° C. for 48 h, and moved to a growth chamber at 20° C. for 19 additional days, after which time disease ratings were visually made.
as §2

[3] = 40 ppm (compound number followed by *)
[4] = 200 ppm, 100 = 100% disease control, 0 = no control

| SMILES | Test A rating (% disease control) [1, 3] | Test E rating (% disease control) (Alternaria solani; [3]) | Test F rating (% disease control) (Botrytis cinerea; [3]) | Test B rating (% disease control) [2, 3] | Test D rating (% disease control) (Septoria nodorum; [3]) | Test C rating (% disease control) (Septoria tritici; [3]) | further results |
| --- | --- | --- | --- | --- | --- | --- | --- |
| COc1cc(OC)cc(-c2c(C(C)(C)O)cnc(C)c2-c2c(F)cc(OC)cc2F)c1 [Compound 72, 5-(2,6-difluoro-4-methoxyphenyl)-4-(3,5-dimethoxyphenyl)-α,α,6-trimethyl-3-pyridinemethanol] | – | – | – | – | – | – | pest or weed control at 200 ppm ([1]; Blumeria graminis, 192 h, 200 ppm, 100 = 100% disease control, 0 = no control): 100%; pest or weed control at 200 ppm (Alternaria solani; Alternaria solani, 168 h, 200 ppm, 100 = 100% disease control, 0 = no control): 100%; pest or weed control at 200 ppm (Botrytis cinerea; Botrytis cinerea, 120 h, 200 ppm, 100 = 100% disease control, 0 = no control): 99%; pest or weed control at 200 ppm ([2]; 192 h, 200 ppm, 100 = 100% disease control, 0 = no control): 100%; pest or weed control at 200 ppm (Septoria nodorum; Parastagonospora nodorum, 216 h, 200 ppm, 100 = 100% disease control, 0 = no control): 100%; pest or weed control at 200 ppm (Septoria tritici; Zymoseptoria tritici, 504 h, 200 ppm, 100 = 100% disease control, 0 = no control): 95% |
| CCC(C)c1cnc(C)c(-c2c(F)cc(F)cc2F)c1-c1cc(OC)cc(OC)c1 (stereo not drawn) [Compound 73] | 100% | 91% | 99% | 100% | 0% | 94% | – |
| C=C(C)c1cnc(C)c(-c2c(F)cc(OC)cc2F)c1-c1cc(OC)cc(OC)c1 [Compound 74] | – | – | – | – | – | – | Test A rating (% disease control) [1, 4]: 100%; Test E rating (% disease control) (Alternaria solani; [4]): 100%; Test F rating (% disease control) (Botrytis cinerea; [4]): 98%; Test B rating (% disease control) [2, 4]: 100%; Test D rating (% disease control) (Septoria nodorum; [4]): 100%; Test C rating (% disease control) (Septoria tritici; [4]): 98% |
| COc1cc(OC)cc(-c2c(C(C)C)cnc(C)c2-c2c(F)cc(OC)cc2F)c1 [Compound 75] | 99% | 100% | 99% | 100% | 99% | 96% | – |
| COc1cc(OC)cc(-c2c(-c3c(F)cccc3F)cnc(Cl)c2-c2c(F)cccc2F)c1 [Compound 76] | 0% | 0% | 0% | 28% | 0% | 0% | – |
| C=C(C)c1cnc(C)c(-c2c(F)ccc(F)c2F)c1-c1cc(OC)cc(OC)c1 [Compound 77] | 100% | 99% | 84% | 99% | 0% | 92% | – |
| COc1cc(OC)cc(-c2c(C3CCOCC3)cnc(C)c2-c2c(F)cc(F)cc2F)c1 [Compound 79] | 97% | 100% | 91% | 100% | 95% | 93% | – |
| COc1cc(OC)cc(-c2c(-c3c(F)cc(F)cc3F)cnc(Cl)c2-c2c(F)cc(F)cc2F)c1 [Compound 80] | – | – | – | – | – | – | Test A rating (% disease control) [1, 4]: 95%; Test E rating (% disease control) (Alternaria solani; [4]): 64%; Test F rating (% disease control) (Botrytis cinerea; [4]): 0%; Test B rating (% disease control) [2, 4]: 97%; Test D rating (% disease control) (Septoria nodorum; [4]): 0%; Test C rating (% disease control) (Septoria tritici; [4]): 57% |
| COc1cc(OC)cc(-c2c(-c3c(F)cccc3F)cnc(C#N)c2-c2c(F)cccc2F)c1 [Compound 81] | – | – | – | – | – | – | Test A rating (% disease control) [1, 4]: 78%; Test E rating (% disease control) (Alternaria solani; [4]): 98%; Test F rating (% disease control) (Botrytis cinerea; [4]): 46%; Test B rating (% disease control) [2, 4]: 96%; Test D rating (% disease control) (Septoria nodorum; [4]): 0%; Test C rating (% disease control) (Septoria tritici; [4]): 93% |
| COc1ccc(-c2c(C)ncc(C(C)CO)c2-c2cc(OC)cc(OC)c2)cc1 (stereo not drawn) [Compound 82] | – | – | – | – | – | – | Test A rating (% disease control) [1, 4]: 97%; Test E rating (% disease control) (Alternaria solani; [4]): 98%; Test F rating (% disease control) (Botrytis cinerea; [4]): 98%; Test B rating (% disease control) [2, 4]: 98%; Test D rating (% disease control) (Septoria nodorum; [4]): 69%; Test C rating (% disease control) (Septoria tritici; [4]): 95% |
| COc1cc(OC)cc(-c2c(C3CCSCC3)cnc(C)c2-c2ccc(F)cc2)c1 [Compound 84] | 96% | 0% | 49% | 98% | 0% | 96% | – |
| COc1cc(OC)cc(-c2c(-c3ccccc3)cnc(C)c2-c2ccccc2F)c1 [Compound 86] | 96% | 31% | 92% | 98% | 0% | 93% | – |
| COc1cc(OC)cc(-c2c(-c3ccccc3)cnc(C)c2-c2c(F)cccc2F)c1 [Compound 87] | 98% | 0% | 72% | 96% | 0% | 95% | – |
| COc1cc(OC)cc(-c2c(-c3ccc(F)cc3)cnc(C)c2-c2ccc(F)cc2)c1 [Compound 88] | 58% | 0% | 99% | 53% | 0% | 77% | – |
| COc1cc(OC)cc(-c2c(C(C)CO)cnc(C)c2-c2c(F)cccc2F)c1 (stereo not drawn) [Compound 90] | 0% | 98% | 71% | 74% | 0% | 90% | – |
| COc1cc(OC)cc(-c2c(C(C)CO)cnc(C)c2-c2c(F)cc(OC)cc2F)c1 (stereo not drawn) [Compound 92] | 76% | 100% | 94% | 99% | 82% | 96% | – |
| COc1cc(OC)cc(-c2c(-c3ccc(F)cc3)cnc(C)c2-c2c(F)cc(F)cc2F)c1 [Compound 93] | 96% | 21% | 98% | 91% | 0% | 93% | – |
